The term pIC50 denotes −log10 of the IC50, conventionally taken in molar units.

SMILES strings stand for the structures. pIC50: −log10 of the molar value.

Holding throughout (type): biochemical
One test has as its target EGFR L858R/T790M mutant (Homo sapiens (Human), UniProt P00533, L858R/T790M). The experiment in a line: HotSpot radiometric kinase assay, EGFR L858R/T790M mutant. The following applies: 10 μM ATP. The essentials:
(§1)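 Enzyme and substrate pairs were exposed to inhibitor for roughly 20 min before radiolabelled ATP (10 μM final) was introduced; the reaction proceeded 120 min at ambient temperature in pH 7.5 buffer with 1% DMSO, and phosphorylated product was captured on P81 filters for IC50 determination.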

A further test deals with EGFR WT (Homo sapiens (Human), UniProt P00533). The experiment in a line: HotSpot radiometric kinase assay (Reaction Biology), EGFR WT. The following applies: 10 μM ATP. The method in brief:
as §1

Another test deals with CLK2 (Homo sapiens (Human), UniProt P49760). The experiment in a line: Inhibition of CLK2 kinase activity evaluated at Nanosyn (ADP-Glo). The following applies: ADP-Glo luminescence. The method in brief:
(§2)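 Percent inhibition derived from luminescent ADP detection (ADP-Glo), normalised to DMSO-only and enzyme-free wells. Reactions ran in HEPES pH 7.5 buffer with Mg2+, Triton X-100 and BSA, 1% DMSO, ATP-initiated, for an assay-specific time.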

For test [1], the target named is EGFR Δ746-750/C797S mutant (Homo sapiens (Human), UniProt P00533, C797S/DEL746-750). As to the kind of experiment: HotSpot radiometric kinase assay, EGFR Δ746-750/C797S mutant. The settings on record: 10 μM ATP. The essentials:
as §1

The target of another test is EGFR Δ746-750 mutant (Homo sapiens (Human), UniProt P00533, DEL746-750). The experiment in a line: HotSpot radiometric kinase assay, EGFR Δ746-750 mutant. The following applies: 10 μM ATP. The method in brief:
as §1

For another test, the target named is ALK (Homo sapiens (Human), UniProt Q9UM73). The experiment in a line: HotSpot radiometric kinase assay, inhibition of ALK kinase activity. The following applies: 10 μM ATP. The method, then:
Briefly, specific kinase/substrate pairs along with required cofactors were prepared in reaction buffer; 20 mM Hepes pH 7.5, 10 mM […], 1 mM EGTA, 0.02% Brij35, 0.02 mg/ml BSA, 0.1 mM Na3VO4, 2 mM DTT, 1% DMSO. Compounds were delivered into the reaction, followed […] later by addition of a mixture of ATP (Sigma, St. Louis MO) and ^33P ATP (Perkin Elmer, Waltham MA) to a final concentration of 10 μM. Reactions were carried out at room temperature for 120 min, followed by spotting of the reactions onto P81 ion exchange filter paper (Whatman Inc., Piscataway, NJ). Unbound phosphate was removed by extensive washing of filters in 0.75% phosphoric acid. […] IC50 values and curve fits were obtained using Prism (GraphPad Software).

For the next test, the target named is CLK1 (Homo sapiens (Human), UniProt P49759). As to the kind of experiment: Inhibition of CLK1 kinase activity evaluated at Nanosyn (ADP-Glo). The settings on record: ADP-Glo luminescence. The method in brief: as §2
(ADP-Glo first removes unused ATP, then detects ADP through luciferase.)

Another test has as its target EGFR (D770_N771insNPG) (Homo sapiens (Human), UniProt P00533, INS770NPG). The experiment in a line: HotSpot radiometric kinase assay, EGFR (D770_N771insNPG). The settings on record: 10 μM ATP, read-out: EGFR (Δ770_N771insNPG) IC50. The essentials:
as §1

The next test concerns the target EGFR L858R mutant (Homo sapiens (Human), UniProt P00533, L858R). The experiment in a line: HotSpot radiometric kinase assay, EGFR L858R mutant. The following applies: 10 μM ATP. The method in brief: as §1
The target of a further test is CLK4 (Homo sapiens (Human), UniProt Q9HAZ1). As to the kind of experiment: Inhibition of CLK4 kinase activity evaluated at Nanosyn (ADP-Glo). The following applies: ADP-Glo luminescence. The essentials:
as §2

The next test addresses CLK3 (Homo sapiens (Human), UniProt P49761). The experiment in a line: Inhibition of CLK3 kinase activity evaluated at Nanosyn (ADP-Glo). The settings on record: ADP-Glo luminescence. The essentials:
as §2

For test [2], the target named is EGFR L858R/T790M/C797S mutant (Homo sapiens (Human), UniProt P00533, C797S/L858R/T790M). As to the kind of experiment: HotSpot radiometric kinase assay, EGFR L858R/T790M/C797S mutant. The following applies: 10 μM ATP. The method in brief:
as §1

Chain of CLK2 (P49760 whole entry): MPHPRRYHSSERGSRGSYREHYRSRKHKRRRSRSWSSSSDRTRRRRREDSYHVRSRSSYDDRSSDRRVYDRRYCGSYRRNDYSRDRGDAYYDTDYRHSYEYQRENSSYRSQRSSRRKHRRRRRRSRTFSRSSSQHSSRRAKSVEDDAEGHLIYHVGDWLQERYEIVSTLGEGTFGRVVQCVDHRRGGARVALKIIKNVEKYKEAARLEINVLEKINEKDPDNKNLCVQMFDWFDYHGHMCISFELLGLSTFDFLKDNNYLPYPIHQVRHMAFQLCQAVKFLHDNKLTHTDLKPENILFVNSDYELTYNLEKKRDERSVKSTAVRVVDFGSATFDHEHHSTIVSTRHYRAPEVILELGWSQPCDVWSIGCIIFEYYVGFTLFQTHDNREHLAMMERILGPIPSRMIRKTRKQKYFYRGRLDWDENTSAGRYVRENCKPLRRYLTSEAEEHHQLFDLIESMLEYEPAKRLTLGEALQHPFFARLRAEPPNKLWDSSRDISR
Chain of CLK1 (P49759 whole entry): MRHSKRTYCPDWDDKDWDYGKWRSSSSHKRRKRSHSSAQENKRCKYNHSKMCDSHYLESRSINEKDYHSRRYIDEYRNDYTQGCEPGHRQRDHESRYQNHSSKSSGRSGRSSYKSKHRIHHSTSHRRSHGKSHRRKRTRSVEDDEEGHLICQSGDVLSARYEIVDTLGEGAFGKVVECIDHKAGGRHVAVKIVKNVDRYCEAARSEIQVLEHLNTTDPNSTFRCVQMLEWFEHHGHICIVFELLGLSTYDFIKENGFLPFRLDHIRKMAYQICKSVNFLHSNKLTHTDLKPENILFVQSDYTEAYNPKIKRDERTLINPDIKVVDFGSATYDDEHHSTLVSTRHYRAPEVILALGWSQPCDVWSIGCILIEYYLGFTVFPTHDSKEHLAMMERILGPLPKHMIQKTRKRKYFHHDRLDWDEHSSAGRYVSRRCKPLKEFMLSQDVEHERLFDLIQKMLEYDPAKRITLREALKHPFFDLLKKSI
Chain of EGFR L858R/T790M/C797S mutant (P00533 25-1210 T790M/C797S/L858R): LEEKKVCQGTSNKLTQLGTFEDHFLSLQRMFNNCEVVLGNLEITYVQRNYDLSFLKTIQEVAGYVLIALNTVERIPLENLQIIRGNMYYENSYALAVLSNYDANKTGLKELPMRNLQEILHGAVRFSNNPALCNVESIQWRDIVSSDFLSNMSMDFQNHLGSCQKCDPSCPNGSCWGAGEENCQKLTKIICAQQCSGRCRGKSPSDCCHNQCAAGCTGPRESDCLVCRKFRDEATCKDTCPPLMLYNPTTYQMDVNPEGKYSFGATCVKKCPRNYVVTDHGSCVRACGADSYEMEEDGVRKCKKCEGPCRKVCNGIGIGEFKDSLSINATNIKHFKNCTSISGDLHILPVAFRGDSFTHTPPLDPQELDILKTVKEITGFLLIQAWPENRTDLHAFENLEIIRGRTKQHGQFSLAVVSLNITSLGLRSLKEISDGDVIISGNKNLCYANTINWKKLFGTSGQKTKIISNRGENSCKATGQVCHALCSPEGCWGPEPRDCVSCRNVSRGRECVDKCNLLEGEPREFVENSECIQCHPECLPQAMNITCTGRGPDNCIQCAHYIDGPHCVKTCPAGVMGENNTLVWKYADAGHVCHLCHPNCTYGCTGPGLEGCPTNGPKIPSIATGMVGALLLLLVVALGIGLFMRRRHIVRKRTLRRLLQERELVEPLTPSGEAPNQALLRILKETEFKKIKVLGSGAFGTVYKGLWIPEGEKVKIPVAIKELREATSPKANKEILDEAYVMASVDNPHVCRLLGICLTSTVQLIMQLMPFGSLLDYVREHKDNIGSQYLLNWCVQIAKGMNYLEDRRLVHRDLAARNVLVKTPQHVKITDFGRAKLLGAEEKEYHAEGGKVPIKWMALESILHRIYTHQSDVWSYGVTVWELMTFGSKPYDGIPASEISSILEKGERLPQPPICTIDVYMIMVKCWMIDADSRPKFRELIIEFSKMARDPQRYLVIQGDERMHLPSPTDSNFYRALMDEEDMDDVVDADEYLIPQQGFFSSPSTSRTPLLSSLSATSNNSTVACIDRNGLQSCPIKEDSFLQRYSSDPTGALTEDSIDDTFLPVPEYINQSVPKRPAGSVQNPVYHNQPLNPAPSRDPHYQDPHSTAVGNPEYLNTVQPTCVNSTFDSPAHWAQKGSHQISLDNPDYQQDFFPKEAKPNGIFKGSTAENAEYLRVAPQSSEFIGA
Chain of CLK4 (Q9HAZ1 whole entry): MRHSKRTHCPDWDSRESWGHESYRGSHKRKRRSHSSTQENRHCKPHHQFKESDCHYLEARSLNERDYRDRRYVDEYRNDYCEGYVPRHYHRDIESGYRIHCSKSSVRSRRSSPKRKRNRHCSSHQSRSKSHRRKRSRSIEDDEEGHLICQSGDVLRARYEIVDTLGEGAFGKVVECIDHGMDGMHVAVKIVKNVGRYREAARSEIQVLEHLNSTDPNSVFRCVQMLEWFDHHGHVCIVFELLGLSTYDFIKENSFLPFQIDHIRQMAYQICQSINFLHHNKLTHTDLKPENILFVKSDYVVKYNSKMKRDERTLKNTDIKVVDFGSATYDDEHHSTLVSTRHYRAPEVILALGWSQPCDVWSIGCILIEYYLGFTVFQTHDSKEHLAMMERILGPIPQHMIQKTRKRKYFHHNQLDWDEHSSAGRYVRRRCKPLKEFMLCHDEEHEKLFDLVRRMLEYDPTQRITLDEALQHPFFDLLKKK
Chain of CLK3 (P49761 whole entry): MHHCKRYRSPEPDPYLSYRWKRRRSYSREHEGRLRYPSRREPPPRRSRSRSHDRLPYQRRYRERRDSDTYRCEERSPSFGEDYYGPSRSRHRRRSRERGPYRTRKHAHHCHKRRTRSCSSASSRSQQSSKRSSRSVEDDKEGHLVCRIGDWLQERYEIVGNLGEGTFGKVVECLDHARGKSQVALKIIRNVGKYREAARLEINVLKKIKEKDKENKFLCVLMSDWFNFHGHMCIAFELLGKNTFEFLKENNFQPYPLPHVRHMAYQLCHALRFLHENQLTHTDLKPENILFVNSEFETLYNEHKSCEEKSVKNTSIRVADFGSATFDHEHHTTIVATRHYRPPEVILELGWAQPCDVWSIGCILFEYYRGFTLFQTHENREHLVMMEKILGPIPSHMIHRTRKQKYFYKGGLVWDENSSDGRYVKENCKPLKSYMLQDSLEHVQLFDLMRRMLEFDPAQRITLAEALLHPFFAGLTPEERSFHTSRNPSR
Chain of EGFR Δ746-750/C797S mutant (P00533 other isoform, or with tags, fused parts or gaps C797S/del 1-668/del 746-750 limits assumed): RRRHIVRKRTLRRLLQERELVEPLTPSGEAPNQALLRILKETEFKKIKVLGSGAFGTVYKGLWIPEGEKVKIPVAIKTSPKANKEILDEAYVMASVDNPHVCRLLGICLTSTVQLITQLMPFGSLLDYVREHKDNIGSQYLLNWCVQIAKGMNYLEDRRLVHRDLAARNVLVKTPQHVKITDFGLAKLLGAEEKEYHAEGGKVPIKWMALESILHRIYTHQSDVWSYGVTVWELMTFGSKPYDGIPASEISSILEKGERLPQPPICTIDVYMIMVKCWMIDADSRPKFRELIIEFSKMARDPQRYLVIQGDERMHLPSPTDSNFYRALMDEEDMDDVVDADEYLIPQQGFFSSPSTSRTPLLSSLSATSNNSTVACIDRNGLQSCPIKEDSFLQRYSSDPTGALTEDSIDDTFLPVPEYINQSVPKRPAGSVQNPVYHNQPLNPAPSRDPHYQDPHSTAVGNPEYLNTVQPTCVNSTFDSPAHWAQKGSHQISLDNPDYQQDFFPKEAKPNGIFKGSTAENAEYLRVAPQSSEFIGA
Chain of EGFR (D770_N771insNPG) (P00533 other isoform, or with tags, fused parts or gaps del 1-668/ins NPG behind 770 limits assumed): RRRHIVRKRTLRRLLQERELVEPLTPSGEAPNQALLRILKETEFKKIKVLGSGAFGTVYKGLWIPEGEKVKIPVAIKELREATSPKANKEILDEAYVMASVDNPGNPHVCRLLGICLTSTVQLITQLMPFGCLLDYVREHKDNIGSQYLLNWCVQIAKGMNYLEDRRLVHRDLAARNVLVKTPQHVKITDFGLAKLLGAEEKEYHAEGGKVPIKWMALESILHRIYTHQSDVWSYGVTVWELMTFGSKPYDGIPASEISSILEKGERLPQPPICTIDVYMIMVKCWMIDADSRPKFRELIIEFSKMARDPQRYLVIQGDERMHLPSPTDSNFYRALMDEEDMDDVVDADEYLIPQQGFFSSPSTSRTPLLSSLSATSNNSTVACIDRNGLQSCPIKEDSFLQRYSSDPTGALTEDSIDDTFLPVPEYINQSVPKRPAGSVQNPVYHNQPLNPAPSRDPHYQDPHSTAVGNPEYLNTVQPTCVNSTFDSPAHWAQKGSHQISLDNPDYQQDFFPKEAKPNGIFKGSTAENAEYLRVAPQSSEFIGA
Chain of EGFR Δ746-750 mutant (P00533 other isoform, or with tags, fused parts or gaps del 1-668/del 746-750 limits assumed): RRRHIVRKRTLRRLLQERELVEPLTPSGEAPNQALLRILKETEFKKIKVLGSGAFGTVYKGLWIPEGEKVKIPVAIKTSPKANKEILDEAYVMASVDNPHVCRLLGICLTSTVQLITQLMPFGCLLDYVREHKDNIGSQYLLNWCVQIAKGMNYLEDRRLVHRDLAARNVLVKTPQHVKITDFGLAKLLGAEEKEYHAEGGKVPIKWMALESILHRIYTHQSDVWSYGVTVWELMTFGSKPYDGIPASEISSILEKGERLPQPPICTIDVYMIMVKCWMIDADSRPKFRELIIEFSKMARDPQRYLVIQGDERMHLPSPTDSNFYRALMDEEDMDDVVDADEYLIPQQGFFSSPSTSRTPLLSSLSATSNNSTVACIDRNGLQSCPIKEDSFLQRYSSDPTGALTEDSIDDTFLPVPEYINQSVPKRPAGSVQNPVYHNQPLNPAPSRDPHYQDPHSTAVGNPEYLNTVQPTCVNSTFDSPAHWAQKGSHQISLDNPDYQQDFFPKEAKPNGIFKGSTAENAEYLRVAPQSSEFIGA

As to `C[C@H]1CN(C)Cc2c(c(C#N)nn2C)/C=C/c2n[nH]c3ccc(cc23)-c2cnn(C)c2O1` [Example 159, (10S,17E)-8,10,12,14-tetramethyl-2,10,11,12,13,14-hexahydro-8H-3,5-ethenotripyrazolo[3,4-f:3′,4′-j:4″,3″-n][1,4]oxazacyclopentadecine-16-carbonitrile], the pIC50 at EGFR L858R/T790M mutant was 8.81; on EGFR WT, 6.79; on CLK2, 10.15; in test [1], 7.85; at EGFR Δ746-750 mutant it was 7.57; at ALK it was 8.43. The pIC50 was 9.85 at CLK1; 6.94 at EGFR (D770_N771insNPG); 7.46 against EGFR L858R mutant; 9.42 on CLK4; 6.00 on CLK3; 9.13 in test [2].
For `CCN1Cc2c(c(OC(C)C)nn2CC(N)=O)/C=C/c2n[nH]c3ccc(cc23)-c2cnn(C)c2O[C@@H](C)C1` [Example 232, 2-{(10S,17E)-12-ethyl-8,10-dimethyl-16-[(propan-2-yl)oxy]-2,8,10,11,12,13-hexahydro-14H-3,5-ethenotripyrazolo[3,4-f:3′,4′-j:4″,3″-n][1,4]oxazacyclopentadecin-14-yl}acetamide], the pIC50 was 9.89 against EGFR L858R/T790M mutant; 9.39 on EGFR WT; 9.35 on CLK2; 9.26 in test [1]; 10.10 at EGFR Δ746-750 mutant; 9.05 against ALK. Further, the pIC50 on CLK1 was 9.11; at EGFR (D770_N771insNPG), 8.86; at EGFR L858R mutant it was 9.66; on CLK4, 8.83; on CLK3, 7.38; in test [2], 9.96.
With `CC(C)Oc1nn(CCO)c2c1/C=C/c1n[nH]c3cc(F)c(cc13)-c1cnn(C)c1O[C@@H](C)CN(C)C2` [Example 181, 2-{(10S,17E)-19-fluoro-8,10,12-trimethyl-16-[(propan-2-yl)oxy]-2,8,10,11,12,13-hexahydro-14H-3,5-ethenotripyrazolo[3,4-f:3′,4′-j:4″,3″- n][1,4]oxazacyclopentadecin-14-yl}ethan-1-ol], the pIC50 at EGFR L858R/T790M mutant is 8.89; on EGFR WT, 7.90; on CLK2 it was 9.17; in test [1], 8.77; against EGFR Δ746-750 mutant, 8.65; at ALK it was 8.98. The pIC50 on CLK1 was 9.06; on EGFR (D770_N771insNPG) it was 7.07; against EGFR L858R mutant, 8.74; at CLK4, 8.59; at CLK3 it was 7.25; in test [2] it was 8.60.
For the compound `CCOc1nn(CCO)c2c1/C=C/c1n[nH]c3ccc(cc13)-c1cnn(C)c1O[C@@H](C)CN(C)C2` [Example 119, 2-[(10S,17E)-16-ethoxy-8,10,12-trimethyl-2,8,10,11,12,13-hexahydro-14H-3,5-ethenotripyrazolo[3,4-f:3′,4′-j:4″,3″-n][1,4]oxazacyclopentadecin-14-yl]ethan-1-ol], the pIC50 on EGFR L858R/T790M mutant is 9.59; on EGFR WT, 8.63; at CLK2, 10.40; in test [1] it was 8.90; on EGFR Δ746-750 mutant, 9.20; at ALK it was 8.98. The pIC50 was 9.85 at CLK1; 8.07 on EGFR (D770_N771insNPG); 9.21 against EGFR L858R mutant; 9.48 at CLK4; 7.71 on CLK3; 8.67 in [2].
In the case of `CCOc1nn([C@@H](C)CO)c2c1/C=C/c1n[nH]c3cc(F)c(cc13)-c1cnn(C)c1O[C@@H](C)CN(CC)C2` [Example 215], the pIC50 against EGFR L858R/T790M mutant was 8.83; on EGFR WT, 8.77; on CLK2, 8.68; in test [1] it was 8.71; at EGFR Δ746-750 mutant it was 9.16; against ALK, 8.59. Besides, the pIC50 was 8.48 on CLK1; 8.43 at EGFR (D770_N771insNPG); 8.77 against EGFR L858R mutant; 8.04 on CLK4; 6.02 on CLK3; 9.05 in test [2].
